Experimental data published in paper PMC11858624, “Antioxidant and Tyrosinase-Inhibitory Activities and Biological Bioactivities of Flavonoid Derivatives from Quercus mongolica Pollen” (Molecules, 2025).
pIC50: −log10 of the molar value.

Key:
[1] = DPPH radical scavenging antioxidant assay; settings: for pIC50: DPPH radical scavenging, 10 min incubation, PC = positive control ascorbic acid; for DPPH scavenging activity: at a concentration of 100 µM
Procedure: The antioxidant properties of compounds 1–18 isolated from the pollen of Q. mongolica were assessed through DPPH assay.
The radical scavenging activity of DPPH (Sigma-Aldrich) was hired for the antioxidant activity. For each assay, 10 mM of each compound isolated from the pollen of Q. mongolica (1 µL) was evaluated, followed by 49 µL of MeOH in each well. Subsequently, 50 µL of 0.3 mM DPPH solution (Sigma-Aldrich) was added. The final concentration was tested to 0.1 mM. The mixture was incubated for 10 min, and antioxidant activity was evaluated by measuring UV at 550 nm using a Dynatech MR 500 plate reader. […]

mushroom tyrosinase = mushroom tyrosinase (Agaricus bisporus, UniProt C7FF04); experiment: Tyrosinase inhibition assay (dopachrome formation, absorbance at 490 nm); format: biochemical; settings: at a concentration of 100 µM
Chain of mushroom tyrosinase (C7FF04 1-392): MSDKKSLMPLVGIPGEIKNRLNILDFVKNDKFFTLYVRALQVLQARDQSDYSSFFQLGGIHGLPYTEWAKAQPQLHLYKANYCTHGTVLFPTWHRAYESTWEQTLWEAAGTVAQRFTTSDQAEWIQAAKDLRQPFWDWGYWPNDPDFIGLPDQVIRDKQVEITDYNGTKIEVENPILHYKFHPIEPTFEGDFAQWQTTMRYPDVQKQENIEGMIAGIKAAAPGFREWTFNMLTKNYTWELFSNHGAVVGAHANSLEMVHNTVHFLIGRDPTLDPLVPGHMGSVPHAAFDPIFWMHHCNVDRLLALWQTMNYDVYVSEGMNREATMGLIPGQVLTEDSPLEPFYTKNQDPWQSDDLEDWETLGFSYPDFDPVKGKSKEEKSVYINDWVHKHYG
Chain of mushroom tyrosinase (G1K3P4 1-150 partner): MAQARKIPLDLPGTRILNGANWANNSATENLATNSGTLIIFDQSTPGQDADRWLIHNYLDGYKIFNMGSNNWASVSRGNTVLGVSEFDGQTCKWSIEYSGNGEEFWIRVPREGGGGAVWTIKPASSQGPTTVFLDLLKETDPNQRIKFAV
Procedure: Tyrosinase is a crucial enzyme in melanin synthesis, participating as an oxidase in the initial steps of melanin formation.
Evaluation of tyrosinase-inhibitory activity was conducted using mushroom tyrosinase (Sigma-Aldrich). For each test, 10 mM of each compound isolated from the pollen of Q. mongolica (1 µL) was evaluated. A 50 µL portion of 1 mM tyrosine (Sigma-Aldrich) dissolved in phosphate-buffered saline was introduced into each well, followed by a 5 min incubation period. Mushroom tyrosinase was prepared to a final concentration of 0.1 U/mL in phosphate-buffered saline, and 49 µL of the prepared enzyme solution was added to the wells, resulting in a compound concentration of 0.1 mM. The mixture underwent a 15 min incubation, after which the production of dopachrome was evaluated by recording the absorbance at 490 nm using a Dynatech MR 500 plate reader (Dynatech, Charlottesville, VA, USA). […] The percentage inhibition for each sample was determined at concentrations of […]. The IC50 value was calculated as the concentration of the compound required to achieve 50% inhibition of tyrosinase activity.

pIC50 [1] | SMILES | DPPH scavenging activity [1] | inhibition at 100 µM (mushroom tyrosinase) [%]
< 4.00 | COc1cc(-c2oc3cc(O)cc(O)c3c(=O)c2OC2OC(COC3OCC(O)C(O)C3O)C(O)C(O)C2OC(C)=O)ccc1O (stereo not shown) [Compound 1, mongolinodoside A] | – | –
4.46 | O=c1c(OC2OC(CO)C(O)C(O)C2OC2OC(CO)C(O)C(O)C2O)c(-c2ccc(O)c(O)c2)oc2cc(O)cc(O)c12 (stereo not shown) [Compound 2, quercetin 3-sophoroside] | over 90% | –
< 4.00 | COc1cc(-c2oc3cc(O)cc(O)c3c(=O)c2OC2OC(CO)C(O)C(O)C2OC2OC(C)C(O)C(O)C2O)ccc1O (stereo not shown) [Compound 3, calendoflavoside] | – | –
< 4.00 | O=c1c(OC2OC(CO)C(O)C(O)C2OC2OCC(O)C(O)C2O)c(-c2ccc(O)cc2)oc2cc(O)cc(O)c12 (stereo not shown) [Compound 4, leucoside] | – | –
4.74 | O=c1c(OC2OC(CO)C(O)C(O)C2OC2OCC(O)C(O)C2O)c(-c2ccc(O)c(O)c2)oc2cc(O)cc(O)c12 (stereo not shown) [Compound 5, quercetin 3-sambubioside] | over 90% | –
< 4.00 | COc1cc(-c2oc3cc(O)cc(O)c3c(=O)c2OC2OC(COC3OCC(O)C(O)C3O)C(O)C(O)C2O)ccc1O [Compound 6, Isorhamnetin 3-O-β-D-xylopyranosyl (1→6)-β-D-glucopyranoside] | – | –
< 4.00 | O=c1c(O[C@@H]2O[C@H](CO)[C@@H](O)[C@H](O)[C@H]2O)c(-c2ccc(O)cc2)oc2cc(O)cc(O)c12 [Compound 7, astragalin] | – | –
4.55 | O=c1c(O[C@@H]2O[C@H](CO)[C@@H](O)[C@H](O)[C@H]2O)c(-c2ccc(O)c(O)c2)oc2cc(O)cc(O)c12 [Compound 8, isoquercetin] | over 90% | –
< 4.00 | COc1cc(-c2oc3cc(O)cc(O)c3c(=O)c2OC2OC(CO)C(O)C(O)C2O)ccc1O (stereo not shown) [Compound 9, isorhamnetin 3-glucoside] | – | –
< 4.00 | COc1c(O)cc(O)c2c(=O)c(OC3OC(CO)C(O)C(O)C3O)c(-c3ccc(O)cc3)oc12 (stereo not shown) [Compound 10, 8-methoxykaempferol 3-glucoside] | – | –
< 4.00 | COc1cc(-c2oc3c(OC)c(O)cc(O)c3c(=O)c2OC2OC(CO)C(O)C(O)C2O)ccc1O (stereo not shown) [Compound 11, limocitrin 3-glucoside] | – | –
4.28 | COc1cc(-c2oc3c(OC)c(O)cc(O)c3c(=O)c2O)ccc1O [Compound 14, limocitrin] | over 90% | –
< 4.00 | O=c1cc(-c2ccc(O)cc2)oc2cc(O)cc(O)c12 [Compound 15, apigenin] | – | –
< 4.00 | O=C1C[C@@H](c2ccc(O)cc2)Oc2cc(O)cc(O)c21 [Compound 17, naringenin] | – | –
< 4.00 | COc1ccc(-c2coc3cc4c(c(O)c3c2=O)C=CC(C)(C)O4)cc1 [Compound 18, 4′-methylalpinumisoflavone] | – | –
4.55 | O=C1O[C@H]([C@@H](O)CO)C(O)=C1O [ascorbic acid, reference compound] | – | –

SMILES | pIC50 [1] | DPPH scavenging activity [1] | inhibition at 100 µM (mushroom tyrosinase) [%]
O=c1c(O)c(-c2ccc(O)cc2)oc2cc(O)cc(O)c12 [Compound 12, kaempferol] | 4.37 | over 90% | > 70
COc1cc(-c2oc3cc(O)cc(O)c3c(=O)c2O)ccc1O [Compound 13, isorhamnetin] | 4.59 | over 90% | –
O=c1cc(-c2ccc(O)c(O)c2)oc2cc(O)cc(O)c12 [Compound 16, luteolin] | 5.01 | over 90% | > 50
